# Where “and” joins values, the source holds several entries; their conditions need not be identical. Identical values can stand only once. Like-named read-outs stand apart in the source and are kept apart here. Marks after values point to notes of the source that are not given here.
# How the values were obtained:
# enveloped viruses = details: cited from earlier work
# HSV-1 [1] = type: cell-based, HSV-1 KOS; details: for protective effect on infectivity in atmospheric O2: substance alone, without BSA carrier; for drop of viral titers: after 2 h of incubation in atmospheric O2 at 37°C with the substance
# Description: To test other oxidative conditions, an HSV-1 suspension was incubated in atmospheric oxygen at 37°C in DMEM without serum. The virions were incubated with the previously used antioxidants (vitamin E-BSA and vitamin C), vitamin E without the carrier, the BSA carrier alone, vitamin C-BSA, cholesterol (another compound with a conjugated ring and alkyl chains but with limited antioxidant activity), or cholesterol-BSA. A plaquing efficiency assay was then performed with the treated virions.
# A time course plaquing efficiency assay was performed with HSV-1 incubated under atmospheric oxidative conditions. Virions (3 × 10^5 PFU) were incubated with vitamin E, vitamin E-BSA, cholesterol, cholesterol-BSA, vitamin C (10 μM final concentration), or the carrier BSA (0.5% final concentration) for 3 h at 37°C in a water bath with atmospheric air (atmospheric O2). Aliquots from each condition were taken every hour and diluted 1:200 to perform plaquing efficiency assays as previously described on the Vero cells.
# HSV-1 [2] = experiment: HSV-1 virion infectivity (plaquing efficiency) on Vero cells after virion pretreatment; details: for EC50: Human alphaherpesvirus 1, Vero
# Description: (§1) The inocula were removed, and the cells were washed and then incubated at 37°C in 5% CO2 until plaques were visible and well-resolved (about 2 days), at which time they were fixed and stained with crystal violet.
# (§2) HSV-1 suspensions of 20,000 plaque PFU in 250 μL DMEM were mixed 1:1 with 2-fold serial dilutions of the general peroxidators and were incubated in a water bath for 2 h at 37°C. Next, treated virions were diluted 1:100 before being adsorbed onto cells for 1 h at 37°C. The inocula were removed, and the cells were washed twice with cold DMEM. Infected cells were overlaid with DMEM supplemented with 2% (Vero) or 1% (HFF) methylcellulose and 5% FBS and were incubated at 37°C until plaques were visible and well-resolved, typically in about 2 days. Cell monolayers were fixed and stained with 1% crystal violet in 17% methanol for 18 h at RT. The cells were washed, and the plaques were counted and normalized to those produced by the vehicle treated virions.
# (§3) To test the effects of lipid soluble antioxidants on virions, 10 μM vitamin E loaded onto 1% carrier BSA in the dark for 4.5 h at RT was incubated with 10^6 HSV-1 virions for 3 h at 37°C. […] The treated virions were diluted 1:100 before infecting cells. […] The mix was incubated for 2 h at 37°C, diluted 1:100, and used to infect cells. The infectivity of an aliquot of treated virions was tested via a plaque assay.
# [3] = Vero cell viability after 2 h exposure to lipoperoxidators (CellTiter-Glo); details: African green monkey, Vero cells, CC50, Vero
# Description: (§4) The cells were washed twice with warm DMEM before a 100 μL lipoperoxidator solution was transferred with a multichannel pipette from the plate containing the drug dilutions in technical triplicates. The cells were incubated with peroxidators for 2 h at 37°C. Then, the medium was removed, and the cells were washed twice with DMEM at 37°C. The plates were cooled down to RT, and the medium was removed. Then, 50 μL phenol red free DMEM and 50 μL CellTiter-glo Luminiscent Cell Viability Assay (Promega, G7571/2/3) were added and mixed in an orbital shaker for 2 min. Afterwards, 80 μL of the mix was transferred onto white 96-well plates and incubated for 10 min at RT for signal stabilization. The luminescence was read in the Glomax Multidetection System (Promega) with an integration time of 0.5 s.
# (§5) The means of the technical triplicates were normalized to the means of the vehicle controls, analyzed via nonlinear regression dose responses, and graphed using GraphPad Prism 9.0. Three or four independent biological replicates were performed for each treatment (n = 3 or 4).
# (§6) To evaluate the effects of lipid soluble antioxidants, 10 μM vitamin E was loaded onto carrier 1% BSA in the dark for 4.5 h at RT. The cells were washed twice with DMEM at 37°C and preloaded with 100 μL of 10 μM vitamin E in BSA carrier for 3 h at 37°C. The cells were washed twice again before the addition of any lipoperoxidators. Peroxidators were then added to the cells at working concentrations and incubated for 2 h at 37°C. The peroxidation solution was then removed, and the cells were washed twice with DMEM before analyzing viability. To evaluate the effects of a water soluble antioxidant, the cells were treated with 10 μM vitamin C (final concentration) simultaneously with the lipoperoxidators.
# Vero cells [4] = experiment: as above; details: Vero
# Description: as §4, §5, §6
# [5] = HFF cell viability after 2 h exposure to lipoperoxidators (CellTiter-Glo); details: human, HFF cells
# Description: as §4, §5, §6
# HFF cells = experiment: as above; details: HFF
# Description: as §4, §5, §6
# HSV-1 [6] = experiment: HSV-1 virion infectivity (plaquing efficiency) on HFF cells after virion pretreatment; details: for EC50: Human alphaherpesvirus 1, HFF
# Description: as §1, §2, §3
# Vero cells [7] = experiment: Vero cell lipid peroxidation probed with C11-Bodipy; type: cell-based, African green monkey; details: C11-Bodipy (Fig. 8)
# Description: (§7) The effects of peroxidators have been commonly evaluated against purified lipids and liposomes as a proxy, but they have not been evaluated against virions ([50], [53][–][55]). We instead directly evaluated the extent of virion lipid peroxidation.
# To evaluate Vero cell lipoperoxidation with C11-Bodipy, 7.5 × 10^3 cells were seeded into each well of 96-well plates and incubated for 18 h at 37°C in 5% CO2 before preloading them with 1 μM C11-Bodipy for 30 min at 37°C. […] Two hours later, the cells were washed twice and lysed with DMSO:isopropanol. Fluorescence was evaluated in a TECAN Infinite M200 Pro at 550 nm excitation and 580 to 630 nm emission with the reading peak at 600 nm.
# (§8) To evaluate the effects of a lipid soluble antioxidant, cells or virions were preloaded with vitamin E-BSA for 3 h at 37°C. Vitamin E-BSA containing medium was removed, and the cells were washed twice with DMEM. Liperfluo (20 or 10 μM for cells or virions, respectively) or C11-Bodipy (1 μM for cells or 0.1 mol% for virions) were preloaded into the cells or virions for 30 min at 37°C.
# (§9) To evaluate the effects of water soluble antioxidants, liperfluo (20 μM for cells or 10 μM for virions) or C11-Bodipy (1 μM for cells or 0.1 mol% for virions) were preloaded into the cells or virions for 30 min at 37°C. […] Fluorescence was evaluated in a TECAN Infinite M200 Pro at 515 nm excitation and 545 nm emission for liperfluo or at 550 nm excitation and 580 to 630 nm emission for C11-Bodipy.
# HSV-1 virions [8] = experiment: HSV-1 virion lipid peroxidation probed with C11-Bodipy; parameters: species or system HSV-1 KOS; details: C11-Bodipy (Fig. 8)
# Description: as §7
# To evaluate virion lipoperoxidation with C11-Bodipy, 50 μL DMEM containing 5 × 10^6 PFU of HSV-1 was added into each well of 96-well plates. Virions were then preloaded with 0.1 mol % of C11-Bodipy for 30 min at 37°C. […] Fluorescence was evaluated in a TECAN Infinite M200 Pro at 550 nm excitation and 580 to 630 nm emission with the reading peak at 600 nm.
# as §8, §9
# Vero cells [9] = experiment: Vero cell lipid peroxidation probed with liperfluo; type: cell-based, African green monkey; details: for EC50: Chlorocebus sabaeus, Vero, Liperfluo probe, read-out: CP50 (the source's name)
# Description: as §7
# To evaluate cell lipid peroxidation using liperfluo, 7.5 × 10^3 Vero cells were seeded into each well of 96-well plates and incubated for 18 h at 37°C in 5% CO2. […] Two hours later, the cells were washed twice, and the fluorescence was evaluated in a TECAN Infinite M200 Pro at 515 nm excitation and 545 nm emission.
# as §8, §9
# HSV-1 virions [10] = experiment: microbe, parasite or virus in culture; parameters: species or system HSV-1 KOS; details: virions, at higher AAPH concentrations
# Description: as §7
# To evaluate virion peroxidation using liperfluo, 50 μL DMEM that contained 5 × 10^6 PFU of HSV-1 was added to 96-well plates. Virions were then preloaded with 10 μM liperfluo for 20 min at 37°C. […] Fluorescence was evaluated in a TECAN Infinite M200 Pro at 515 nm excitation and 545 nm emission. Medium containing no virus was used as blank.
# as §8, §9
# [11] = many months of exposure to light at room temperature; no reference given; cited from earlier work
compound,measurement,setting,value
C=CCN1C(=O)/C(=C/c2ccc(-c3ccccc3)o2)SC1=S [LJ001],fold over antiviral concentrations at which not cytotoxic,enveloped viruses,≥ 100 fold
CC(C)CCC[C@@H](C)[C@H]1CC[C@H]2[C@@H]3CC=C4C[C@@H](O)CC[C@]4(C)[C@H]3CC[C@]12C [cholesterol],protective effect on infectivity in atmospheric O2,HSV-1 [1],no protective effects
"O=C1O[C@H]([C@@H](O)CO)C(O)=C1O [vitamin C, L-ascorbic acid]",drop of viral titers,HSV-1 [1],about 30%
"Cc1c(C)c2c(c(C)c1O)CC[C@@](C)(CCC[C@H](C)CCC[C@H](C)CCCC(C)C)O2 [vitamin E, alpha tocopherol]",protection of HSV-1 infectivity against the water soluble peroxidator,"HSV-1 [2]; Vero and HFF (Fig. 5B and F), vitamin E preloading",did not protect
same,protective effect on infectivity in atmospheric O2,HSV-1 [1],no protective effects
"CC(C)(N=NC(C)(C)C(=N)N)C(=N)N.Cl.Cl [AAPH, 2,2′-azobis(2-methylpropionamidine) dihydrochloride]",CC50 at 2 h,"[3]; no antioxidant, 2 h at 37°C",69 mM
same,CC50 at 2 h,[3]; with vitamin C (10 μM),88.4 mM
same,concentration of maximal inhibition of cell viability,Vero cells [4],400000 µM
same,lowest concentration that reduced cell viability,Vero cells [4],12.5 mM and 25 mM
same,"PI, CC50 (antioxidant)/CC50",Vero cells [4]; vitamin C,1.3
same,"PI, CC50 (antioxidant)/CC50",Vero cells [4]; vitamin E,2.0 ^*
same,CC50 at 2 h,[5],96.7 mM
same,"PI, CC50 (antioxidant)/CC50",HFF cells; vitamin C,1.1
same,"PI, CC50 (antioxidant)/CC50",HFF cells; vitamin E,0.5 ^*
same,EC50,"HSV-1 [2]; 2 h, Vero, no antioxidant, virions treated 2 h at 37°C",20.8 mM
same,EC50,"HSV-1 [2]; Vero, virions preloaded with vitamin E (10 μM, BSA carrier)",31 mM
same,concentration of maximal inhibition of virion infectivity,HSV-1 [2]; Vero,100 mM
same,concentration giving a loss of infectivity of about 30%,"HSV-1 [2]; Vero, 2 h at 37°C",25 mM
same,"SI, CC50/EC50","HSV-1 [2]; Vero, vitamin C",0.9
same,minimum inhibitory concentration (MIC) that decreased infectivity in the presence of vitamin C,"HSV-1 [2]; Vero, vitamin C",50 mM
same,"SI, CC50/EC50","HSV-1 [2]; Vero, vitamin E",4.4
same,lowest concentration that decreased virion infectivity in the presence of BSA,"HSV-1 [2]; Vero, with BSA",50 mM
same,lowest effective concentration on infectivity in the presence of the antioxidants,"HSV-1 [2]; Vero, with antioxidants",25 mM
same,concentration giving a loss of infectivity of about 30%,HSV-1 [6]; 2 h at 37°C,12.5 mM
same,EC50,"HSV-1 [6]; 2 h, no antioxidant, virions treated 2 h at 37°C",24.7 mM
same,EC50,"HSV-1 [6]; virions preloaded with vitamin E (10 μM, BSA carrier)",31.4 mM
same,"SI, CC50/EC50",HSV-1 [6]; vitamin C,1.7
same,minimum inhibitory concentration (MIC) that decreased infectivity in the presence of vitamin C,HSV-1 [6]; vitamin C,100 mM
same,"SI, CC50/EC50",HSV-1 [6]; vitamin E,3.1
same,lowest concentration affecting cell lipid peroxidation,Vero cells [7],50 to 100 mM
same,lowest concentration affecting virion peroxidation,HSV-1 virions [8],200 mM
same,EC50,Vero cells [9]; no antioxidant,89.2 mM
same,EC50,Vero cells [9]; vitamin C,90.7 mM
same,EC50,Vero cells [9]; vitamin E,90.7 mM
same,level of lipoperoxidation detected by liperfluo,"Vero cells [9]; cells, at higher AAPH concentrations",< 2 AU
same,level of lipoperoxidation detected by liperfluo,HSV-1 virions [10],< 2 AU
"O=c1[nH]c(=O)n([C@@H]2O[C@H](CO)[C@@H](O)[C@@H]2O)cc1C#Cc1ccc2c3cccc4cccc(c5cccc1c52)c43 [aUY11, 5-(Perylen-3-yl) ethynyl-arabino-uridine]",inactivation by light exposure,[11],not inactivated
bovine serum albumin [BSA],drop of viral titers,HSV-1 [1],about 30%
same,protection of virion infectivity,HSV-1 [1]; after 3 h of incubation in atmospheric O2,about 30%

# Reference: PMC9603946, “On the Sensitivity of the Virion Envelope to Lipid Peroxidation” (Microbiology Spectrum, 2022)
